The source of these data is patent US12180226B2, “Spirotricycle RIPK1 inhibitors and methods of uses thereof” (Merck Sharp & Dohme LLC, priority 2021, dated 2024).

Counter-ions that a name gives are not always drawn.

Sequence of RIPK1 (recombinant GST-RIPK1 kinase domain, residues 1-327) (Q13546 1-327): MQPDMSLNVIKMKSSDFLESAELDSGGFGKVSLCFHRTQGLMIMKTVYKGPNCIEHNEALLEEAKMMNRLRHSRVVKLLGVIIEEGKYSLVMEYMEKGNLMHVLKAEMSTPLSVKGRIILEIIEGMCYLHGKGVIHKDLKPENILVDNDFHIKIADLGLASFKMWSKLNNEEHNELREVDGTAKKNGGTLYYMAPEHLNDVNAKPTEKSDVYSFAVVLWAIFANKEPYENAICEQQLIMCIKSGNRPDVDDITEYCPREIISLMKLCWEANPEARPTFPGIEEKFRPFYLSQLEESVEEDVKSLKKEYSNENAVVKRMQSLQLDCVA

The assay has as its target RIPK1 (recombinant GST-RIPK1 kinase domain, residues 1-327) (Homo sapiens (Human), UniProt Q13546). Description: RIPK1-ADP-Glo Enzymatic Assay. To be noted: ADP-Glo; 25 nM GST-RIPK1, 300 μM ATP; assay lower limit ~25 nM; read-out: RIPK1 V0 Ec50. Format: biochemical. Put shortly: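 Inhibition of ADP formation was measured after compound and enzyme (25 nM) were pre-incubated for 30 minutes at ambient temperature and the kinase reaction ran for 150 minutes at 300 μM ATP with dephosphorylated MBP substrate. EC50 values come from ten-point curves fitted non-linearly.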
In the case of `O=C(c1ccc2c(c1)CCO2)N1CCC2(CC1)O[C@@H]1CC[C@@H](c3cc(F)cc(F)c3)N1C2=O` [Example 6.75, (5′S,7a′R)-5′-(3,5-difluorophenyl)-1-(2,3-dihydro-1-benzo-furan-5-carbonyl)-tetrahydro-3′H-spiro [piperidine-4,2′-pyrrolo[2,1-b][1,3]-oxazol]-3′-one], the EC50 was determined as 24.7 nM.
Take `O=C1N2[C@@H](CC[C@H]2c2cc(F)cc(F)c2)OC12CC1CCC(C2)N1c1ccnc2c(F)cnn12` (stereo partly drawn) [Example 4.254, (5′S,7a′R)-5′-(3,5-difluorophenyl)-8-(3-fluoropyrazolo[1,5-a]pyrimidin-7-yl)tetrahydro-3′H-spiro[8-azabicyclo[3.2.1]octane-3,2′-pyrrolo[2,1-b] [1,3]oxazol]-3′-one]: the EC50 was 126 nM.
With `O=C(c1ccn2ccccc12)N1CCC2(CC1)O[C@@H]1CC[C@@H](c3cc(F)cc(F)c3)N1C2=O` [Example 5.68, (5′S,7a′R)-5′-(3,5-difluoro-phenyl)-1-(indolizine-1-carbonyl)tetrahydro-3′H-spiro[piperidine-4,2′-pyrrolo[2,1-b]oxazol]-3′-one], the EC50 is below 25 nM.
As for `CC1CN(c2cc(C#N)ncn2)CCC12O[C@@H]1CC[C@@H](c3ccccc3)N1C2=O` (stereo partly drawn) [Example 4.236, 6-[(4R,5′S,7a′R)-3-methyl-3′-oxo-5′-phenyltetrahydro-1H,3′H-spiro[piperidine-4,2′-pyrrolo[2,1-b] [1,3]oxazol]-1-yl]pyrimidine-4-carbonitrile], the figure is 50 nM; as for `O=C1N2[C@@H](CC[C@H]2c2cccc(F)c2)OC12CCN(c1cc(-c3ccccc3)ncn1)CC2` [Example 4.125, (5′S,7a′R)-5′-(3-fluorophenyl)-1-(6-phenylpyrimidin-4-yl)tetrahydro-3′H-spiro[piperidine-4,2′-pyrrolo[2,1-b] [1,3]oxazol]-3′-one], below 25 nM.
As for `N#Cc1ccc(N2CCC3(O[C@@H]4CC[C@@H](c5ccccc5)N4C3=O)C(F)C2)n2ncnc12` (stereo partly drawn) [Example 4.257, 5-[(5′S,7a′R)-3-fluoro-3′-oxo-5′-phenyltetrahydro-1H,3′H-spiro[piperidine-4,2′-pyrrolo[2,1-b] [1,3]oxazol]-1-yl][1,2,4]triazolo[1,5-a] pyridine-8-carbonitrile], the figure is below 25 nM; as for `O=C1N2[C@@H](CC[C@H]2c2ccccc2)OC12CCN(c1ccnc(C3CC3)n1)CC2` [Example 11.15, (5′S,7a′R)-1-(2-cyclopropylpyrimidin-4-yl)-5′-phenyltetrahydro-3′H-spiro[piperidine-4,2′-pyrrolo[2,1-b][1,3]oxazol]-3′-one], 81.7 nM; as for `O=C1N2[C@@H](CC[C@H]2c2ccccc2)OC12CCN(c1ccnc3c(F)cnn13)CC2` [Example 4.1, (5′S,7a′R)-1-(3-fluoropyrazolo[1,5-a]pyrimidin-7-yl)-5′-phenyltetrahydro-3′H-spiro[piperidine-4,2′-pyrrolo[2,1-b]oxazol]-3′-one], below 25 nM.
On to `O=C(c1cccc(O)c1)N1CCC2(CC1)O[C@@H]1CC[C@@H](c3cc(F)cc(F)c3)N1C2=O` [Example 5.63, (5′S,7a′R)-5′-(3,5-difluoro-phenyl)-1-(3-hydroxy-benzoyl)tetrahydro-3′H-spiro[piperidine-4,2′-pyrrolo[2,1-b]oxazol]-3′-one], for which the EC50 was below 25 nM.
As for `N#Cc1ccccc1C(=O)N1CCC2(CC1)O[C@@H]1CC[C@@H](c3ccccc3)N1C2=O` [Example 6.147, 2-[(5′S,7a′R)-3′-oxo-5′-phenyltetrahydro-1H,3′H-spiro[piperi-dine-4,2′-pyrrolo[2,1-b][1,3]oxazole]-1-carbonyl]benzonitrile], the figure is 328 nM; as for `N#Cc1nccc(N2CCC3(CC2)O[C@@H]2CC[C@@H](c4cc(F)cc(F)c4)N2C3=O)n1` [Example 4.5, 4-[(5′S,7a′R)-5′-(3,5-difluorophenyl)-3′-oxotetrahydro-1H,3′H-spiro[piperidine-4,2′-pyrrolo[2,1-b] [1,3]oxazol]-1-yl]pyrimidine-2-carbonitrile], below 25 nM; as for `COc1ccc(N2CCC3(CC2)O[C@@H]2CC[C@@H](c4cc(F)cc(F)c4)N2C3=O)n2ncnc12` [Example 19.3, (5′S,7a′R)-5′-(3,5-difluorophenyl)-1-(8-methoxy-[1,2,4]triazolo[1,5-a]pyridin-5-yl)tetrahydro-3′H-spiro[piperidine-4,2′ pyrrolo[2,1-b]oxazol]-3′-one, TFA salt], below 25 nM.
With `N#Cc1cccc(C(=O)N2CCC3(CC2)O[C@@H]2CC[C@@H](c4cccc(F)c4)N2C3=O)c1F` [Example 6.122, 2-fluoro-3-[(5′S,7a′R)-5′-(3-fluorophenyl)-3′-oxotetrahydro-1H,3′H-spiro[piperi-dine-4,2′-pyrrolo[2,1-b][1,3]oxazole]-1-carbonyl]benzonitrile] the figure was 47.5 nM; with `Cc1ncc([C@@H]2CC[C@H]3OC4(CCN(c5ccc(C#N)c(C)n5)CC4)C(=O)N32)cc1F` [Example 4.46, 6-[(5′S,7a′R)-5′-(5-fluoro-6-methylpyridin-3-yl)-3′-oxotetrahydro-1H,3′H-spiro[piperidine-4,2′-pyrrolo[2,1-b] [1,3]oxazol]-1-yl]-2-methylpyridine-3-carbonitrile], 46.9 nM.
On to `O=C(c1nc2ncccc2s1)N1CCC2(CC1)O[C@@H]1CC[C@@H](c3cc(F)cc(F)c3)N1C2=O` [Example 6.26], for which the EC50 came out at 321 nM.
As for `O=C1N2[C@@H](CC[C@H]2c2ccccc2)OC12CCN(c1ncc(-c3cscn3)cn1)CC2` [Example 21.13, (5′S,7a′R)-5′-phenyl-1-[5-(1,3-thiazol-4-yl)pyrimidin-2-yl]tetrahydro-3′H-spiro[piperidine-4,2′-pyrrolo[2,1-b][1,3]oxazol]-3′-one], the EC50 is 40.3 nM.
As to `O=C(c1cnon1)N1CCC2(CC1)O[C@@H]1CC[C@@H](c3cc(F)cc(F)c3)N1C2=O` [Example 5.46, (5′S,7a′R)-5′-(3,5-difluoro-phenyl)-1-(1,2,5-oxazole-3-carbonyl)tetrahydro-3′H-spiro[piperidine-4,2′-pyrrolo-[2,1-b]oxazol]-3′-one], the EC50 was 444 nM.
For the compound `O=C(c1csnn1)N1CCC2(CC1)O[C@@H]1CC[C@@H](c3cc(F)cc(F)c3)N1C2=O` [Example 5.49, (5′S,7a′R)-5′-(3,5-difluoro-phenyl)-1-(1,2,3-thiadi-azole-4-carbonyl)tetra-hydro-3′H-spiro[piperidine-4,2′-pyrrolo[2,1-b]oxazol]-3′-one], the EC50 worked out at 78.1 nM.
As for `N#Cc1cn[nH]c1C(=O)N1CCC2(CC1)O[C@@H]1CC[C@@H](c3cc(F)cc(F)c3)N1C2=O` [Example 5.40, 5-((5′S,7a′R)-5′-(3,5-difluorophenyl)-3′-oxo-tetrahydro-3′H-spiro [piperidine-4,2′-pyrrolo-[2,1-b]oxazole]-1-carbon-yl)-1H-pyrazole-4-car-bonitrile], the figure is 459 nM; as for `O=C(c1cccc(F)c1)N1CCC2(CC1)O[C@@H]1CC[C@@H](c3cc(F)cc(F)c3)N1C2=O` [Example 7.5, (5′S,7a′R)-5′-(3,5-difluorophenyl)-1-(3-fluorobenzene-1-carbonyl)tetrahydro-3′H-spiro[piperidine-4,2′-pyrrolo[2,1-b][1,3]oxazol]-3′-one], below 25 nM; as for `N#Cc1ccc(N2CCC3(CC2)O[C@@H]2CC[C@@H](c4cccc(F)c4)N2C3=O)n2nccc12` [Example 4.157, 7-[(5′S,7a′R)-5′-(3-fluorophenyl)-3′-oxotetrahydro-1H,3′H-spiro[piperidine-4,2′-pyrrolo[2,1-b] [1,3]oxazol]-1-yl]pyrazolo[1,5-a] pyridine-4-carbonitrile], below 25 nM.
With `O=C1N2[C@@H](CC[C@H]2c2ccccc2)OC12CCN(c1ccc(F)c3ncnn13)CC2` [Example 4.223, (5′S,7a′R)-1-(8-fluoro[1,2,4]triazolo[1,5-a]pyridin-5-yl)-5′-phenyltetrahydro-3′H-spiro[piperidine-4,2′-pyrrolo[2,1-b] [1,3]oxazol]-3′-one] the figure was below 25 nM; with `N#Cc1ccc(N2CC3(C2)O[C@@H]2CC[C@@H](c4ccccc4)N2C3=O)c2ccnn12` [Example 13.21, 4-((5′S,7a′R)-3′-oxo-5′-phenyltetrahydro-3′H-spiro[azetidine-3,2′-pyrrolo[2,1-b]oxazol]-1-yl)pyrazolo[1,5-a]pyridine-7-carbonitrile, TFA salt], 25.3 nM; with `O=C1N2[C@@H](CC[C@H]2c2cccc(F)c2)OC12CCN(c1ncnc3ccnn13)CC2` [Example 4.204, (5′S,7a′R)-5′-(3-fluorophenyl)-1-(pyrazolo[1,5-a] [1,3,5]triazin-4-yl)tetrahydro-3′H-spiro[piperidine-4,2′-pyrrolo[2,1-b] [1,3]oxazol]-3′-one], below 25 nM.
With `O=C(c1cnc2ccccc2n1)N1CCC2(CC1)O[C@@H]1CC[C@@H](c3cc(F)cc(F)c3)N1C2=O` [Example 6.73, (5′S,7a′R)-5′-(3,5-difluorophenyl)-1-(quinoxaline-2-carbon-yl)tetrahydro-3′H-spiro[piperidine-4,2′-pyrrolo[2,1-b][1,3]-oxazol]-3′-one] the figure was 48.6 nM.
As to `O=C1N2[C@@H](CC[C@H]2c2cc(F)cc(F)c2)OC12CCN(c1ncc(F)c(C(F)F)n1)CC2` [Example 4.66, (5′S,7a′R)-1-[4-(difluoromethyl)-5-fluoropyrimidin-2-yl]-5′-(3,5-difluorophenyl)tetrahydro-3′H-spiro[piperidine-4,2′-pyrrolo[2,1-b] [1,3]oxazol]-3′-one], the EC50 turned out to be 38.4 nM.
With `O=C1N2[C@@H](CC[C@H]2c2ccccc2)OC12CCN(c1csc(C(F)F)c1)CC2` [Example 11.26, (5′S,7a′R)-1-[5-(difluoromethyl)thiophen-3-yl]-5′-phenyltetrahydro-3′H-spiro[piperidine-4,2′-pyrrolo[2,1-b][1,3]oxazol]-3′-one] the figure was 132 nM.
